According to patent US9297017B2, “Methods and compositions for targeted protein degradation” (University of Washington, priority 2010, dated 2016):
Entries after “also recorded” stand apart in the source; their conditions may differ.

Experiments:
COI1 = biological target: T1, COI1 (Arabidopsis thaliana, UniProt O04197); assay: Ligand binding assay with synthetic JAZ peptides replacing recombinant JAZ1 (coronatine binding to COI1/ASK1); settings: 300 nM coronatine
T1 construct: Full-length Arabidopsis thaliana COI1 and ASK1 were co-expressed; GST (cleaved yes); made in house; host or cells: Hi5 insect cells (COI1/ASK1); JAZ peptides synthetic
T1 sequence (O04197 1-592): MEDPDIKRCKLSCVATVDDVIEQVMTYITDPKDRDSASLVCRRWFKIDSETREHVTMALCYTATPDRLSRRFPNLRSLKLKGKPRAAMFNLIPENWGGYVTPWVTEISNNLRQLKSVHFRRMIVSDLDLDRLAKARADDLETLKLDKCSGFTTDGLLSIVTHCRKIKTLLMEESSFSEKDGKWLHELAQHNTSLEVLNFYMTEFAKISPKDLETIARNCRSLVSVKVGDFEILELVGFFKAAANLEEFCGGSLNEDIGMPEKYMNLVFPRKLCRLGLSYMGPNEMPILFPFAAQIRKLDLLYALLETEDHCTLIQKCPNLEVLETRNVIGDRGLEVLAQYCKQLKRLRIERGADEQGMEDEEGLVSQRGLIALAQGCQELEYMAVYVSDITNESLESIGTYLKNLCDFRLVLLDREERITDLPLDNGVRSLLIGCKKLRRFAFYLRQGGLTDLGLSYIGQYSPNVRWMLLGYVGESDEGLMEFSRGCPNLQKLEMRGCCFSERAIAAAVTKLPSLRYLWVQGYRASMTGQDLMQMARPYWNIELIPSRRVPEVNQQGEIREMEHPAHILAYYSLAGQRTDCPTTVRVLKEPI
T1 sequence (Q39255 1-160 partner): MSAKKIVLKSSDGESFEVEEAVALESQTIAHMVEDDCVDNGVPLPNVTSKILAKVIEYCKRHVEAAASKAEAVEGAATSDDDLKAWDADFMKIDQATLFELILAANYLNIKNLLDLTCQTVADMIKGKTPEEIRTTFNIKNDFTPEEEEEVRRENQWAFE
Method: (§1) Radioligand binding was assayed on purified proteins, with 2 mg COI1/ASK1 complex and JAZ proteins at a 1:3 molar ratio. Reactions were prepared in […] final volume and in a binding buffer containing 20 mM Tris-HCl 200 mM NaCl, and 10% glycerol. Saturation binding experiments were conducted with serial dilutions of 3H-coronatine in binding buffer. Nonspecific binding was determined in the presence of […] coronatine. Competition binding experiments were conducted with serial dilutions of JA-Ile in the presence of 100 nM ^3H coronatine with nonspecific binding determined in the presence of […] coronatine. Total binding was determined in the presence of vehicle only. Two-point binding experiments were performed in the presence of 100 nM or 300 nM ^3H-coronatine with nonspecific binding determined in the presence of […] coronatine. Following incubation with mixing at 4° C., all samples were collected with a cell harvester (Brandel, Gaithersburg, Md.) on polyethyleneimine (Sigma)-treated filters. Samples were incubated in liquid scintillation fluid for >1 hour before counting with a Packard Tri-Carb 2200 CA liquid scintillation analyzer (Packard Instrument Co.). Saturation binding experiments were analyzed by nonlinear regression, competition binding experiments by nonlinear regression with Ki calculation as described previously (Cheng 1973), and concentration-response data by sigmoidal dose-response curve fitting, all using GraphPad Prism version 4.00 for MacOSX.
Previous studies have shown that the highly conserved PY sequence at the C-terminal end of the Jas motif plays a role in JAZ localization and stability in vivo, but that the sequence was not necessary for ligand-dependent COI1-JAZ interaction. This was confirmed by an experiment showing that truncation of the PY motif in JAZ1 had little effect on in vitro ligand binding activity (FIG. 3). […]
Various derivatives of the JAZ1 degron sequence, as well as derivatives of the JAZ6 and JAZ7 degron sequences, were analyzed for their ability to bind COI1 with high affinity in the presence of coronatine.

COI1/JAZ1 co-receptor [1] = biological target: T2, COI1/JAZ1 co-receptor (Arabidopsis thaliana, UniProt O04197+Q9LMA8); assay: Ligand-binding based reconstitution assay (inositol phosphate rescue) with dialyzed COI1/ASK1 and JAZ1; settings: for Effect of inositol phosphate on activity of the COI1/JAZ1 co-receptor (coronatine binding): dialyzed COI1, JAZ1, 1 μM inositol phosphate
T2 construct: Full-length Arabidopsis thaliana COI1 and ASK1 were co-expressed; Full-length JAZ substrate proteins were expressed as 6×His-fusion proteins in Escherichia coli; GST (cleaved yes); 6xHis; made in house; host or cells: Hi5 insect cells (COI1/ASK1); Escherichia coli (JAZ1)
T2 sequence (O04197 1-592): T1 sequence (O04197 1-592)
T2 sequence (Q39255 1-160 partner): T1 sequence (Q39255 1-160 partner)
T2 sequence (Q9LMA8 1-253): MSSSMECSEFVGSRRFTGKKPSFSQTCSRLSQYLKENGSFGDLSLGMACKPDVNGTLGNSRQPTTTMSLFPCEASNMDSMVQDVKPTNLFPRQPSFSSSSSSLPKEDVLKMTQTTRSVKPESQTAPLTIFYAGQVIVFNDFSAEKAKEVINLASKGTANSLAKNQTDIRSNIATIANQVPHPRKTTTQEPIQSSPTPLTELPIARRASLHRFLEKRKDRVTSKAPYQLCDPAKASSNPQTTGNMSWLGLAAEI
Method: as §1
To assess the functional role of Ins(1,2,4,5,6)P5 in the COI1/JAZ1 co-receptor, a protocol was developed for stripping the co-purified InsP5 from COI1 without denaturing the protein. Briefly, proteins were mixed with 10% glycerol and incubated in 2 M ammonium phosphate, 100 mM Bis-Tris propane, pH 7.0, 200 mM NaCl, and 10% glycerol at 4° C. for >24 hours with a minimum of 3× buffer changes at 100× sample volume. Samples were then transferred to 20 mM Tris-HCl, pH 8.0, 200 mM NaCl, and 10% glycerol at 4° C. for >24 hours with a minimum of three buffer changes at 100× sample volume. Inositol phosphate rescue experiments were conducted according to the radioligand binding assays described above in the presence of 300 nM ^3H-coronatine with nonspecific binding determined in the presence of 300 μM coronatine.
The resulting COI1/ASK1 complex was tested in a ligand-binding based reconstitution assay. […] From this reconstitution result, it was concluded that Ins(1,2,4,5,6)P5 binding is crucial for the jasmonate coreceptor to perceive the hormone with high sensitivity.

COI1-JAZ6 complex = biological target: T3, COI1-JAZ6 complex (Arabidopsis thaliana, UniProt O04197+Q9C9E3); assay: Competition binding with 100 nM 3H-coronatine; settings: 100 nM 3H-COR, COI1-JAZ6 complex; read-out: Inhibition constant (Ki), competition with 3H-coronatine
T3 construct: Full-length Arabidopsis thaliana COI1 and ASK1 were co-expressed; Full-length JAZ substrate proteins were expressed as 6×His-fusion proteins in Escherichia coli; GST (cleaved yes); 6xHis; made in house; host or cells: Hi5 insect cells (COI1/ASK1); Escherichia coli (JAZ6)
T3 sequence (O04197 1-592): T1 sequence (O04197 1-592)
T3 sequence (Q39255 1-160 partner): T1 sequence (Q39255 1-160 partner)
T3 sequence (Q9C9E3 1-269): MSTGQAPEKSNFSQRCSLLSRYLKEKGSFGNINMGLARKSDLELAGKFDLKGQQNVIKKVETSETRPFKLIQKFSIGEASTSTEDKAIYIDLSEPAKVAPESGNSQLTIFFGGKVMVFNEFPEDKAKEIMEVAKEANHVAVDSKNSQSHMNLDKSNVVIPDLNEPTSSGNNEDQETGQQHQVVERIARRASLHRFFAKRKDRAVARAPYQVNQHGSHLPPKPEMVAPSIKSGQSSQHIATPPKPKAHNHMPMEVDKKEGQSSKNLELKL
Text: (^3H)-labeled coronatine was synthesized by Amersham. Full-length Arabidopsis thaliana COI1 and ASK1 were co-expressed as a glutathione S-transferase (GST) fusion protein and an untagged protein, respectively, in Hi5 suspension insect cells. The COI1/ASK1 complex was isolated from the soluble cell lysate by glutathione affinity chromatography. After on-column tag cleavage by tobacco etch virus protease, the complex was further purified by anion exchange and gel filtration chromatography and concentrated by ultrafiltration to 12-18 mg ml^−1. Full-length JAZ substrate proteins were expressed as 6×His-fusion proteins in Escherichia coli and purified on Ni-NTA resin with subsequent dialysis into 20 mM Tris-HCl, pH 8.0, 200 mM NaCl, and 10% glycerol.
as §1, with “Samples were incubated in liquid scintillation fluid for >1 hour before counting with a Packard Tri-Carb 2200 CA liquid scintillation analyzer (Packard Instrument Co.).” left out

COI1/JAZ1 co-receptor [2] = biological target: T2, COI1/JAZ1 co-receptor; assay: Ligand-binding based reconstitution assay (inositol phosphate rescue) with dialyzed COI1/ASK1 and JAZ1; settings: 100 nM 3H-coronatine, read-out: EC50, rescue of 3H-coronatine binding to dialyzed COI1/ASK1 in the presence of JAZ1

Compound: JAZ1-extension +5+PY: ELPIARRASLHRFLEKRKDRVTSKAPY (listed as Arabidopsis thaliana)
- Binding of peptide to COI1 in the presence of coronatine (COI1): significant binding

Compound: O=P(O)(O)OC1C(OP(=O)(O)O)C(OP(=O)(O)O)C(OP(=O)(O)O)C(OP(=O)(O)O)C1OP(=O)(O)O (stereo not drawn) [InsP6, inositol hexakisphosphate]
- Effect of inositol phosphate on activity of the COI1/JAZ1 co-receptor (coronatine binding) (COI1/JAZ1 co-receptor [1]): not favorable for activity; also recorded: significantly less efficacious

Compound: O=P(O)(O)O[C@@H]1[C@H](O)[C@H](O)[C@@H](OP(=O)(O)O)[C@H](OP(=O)(O)O)[C@H]1O [inositol-1,4,5-trisphosphate]
- Effect of inositol phosphate on activity of the COI1/JAZ1 co-receptor (coronatine binding) (COI1/JAZ1 co-receptor [1]): does not

Compound: CC/C=C\C[C@@H]1C(=O)CC[C@@H]1CC(=O)N[C@H](C(=O)O)[C@@H](C)CC [(3R,7S)-JA-Ile, (3R,7S)-jasmonyl-L-isoleucine]
- Ki (COI1-JAZ6 complex): 1800 ± 600 nM

Compound: JAZ1 +4 extension: LPIARRASLHRFLEKRKDRV (listed as Arabidopsis thaliana)
- Binding of peptide to COI1 in the presence of coronatine (COI1): much higher affinity

Compound: CCC=CC[C@H]1C(=O)CC[C@@H]1CC(=O)N[C@H](C(=O)O)[C@@H](C)CC [(3R,7R)-JA-Ile]
- Ki (COI1-JAZ6 complex): 18000 ± 19000 nM

Compound: O=P(O)(O)OC1C(O)C(OP(=O)(O)O)C(OP(=O)(O)O)C(OP(=O)(O)O)C1OP(=O)(O)O (stereo not drawn) [Ins(1,2,4,5,6)P5, inositol-1,2,4,5,6-pentakisphosphate]
- Effect of inositol phosphate on activity of the COI1/JAZ1 co-receptor (coronatine binding) (COI1/JAZ1 co-receptor [1]): rescued the interaction in a dose-dependent manner
- Effect of inositol phosphate on activity of the COI1/JAZ1 co-receptor (coronatine binding) (COI1/JAZ1 co-receptor [1]; listed as InsP5): rescues binding
- Effect of exogenous inositol phosphate on untreated COI1/JAZ1 co-receptor activity (COI1/JAZ1 co-receptor [1]; untreated (not dialyzed) COI1, JAZ1, 1 μM): did not significantly change its activity
- EC50 (COI1/JAZ1 co-receptor [2]): 27 nM

Compound: JAZ1 degron: RRASLHRFLEKRKDRVTSKAPY (R205-Y226 of JAZ1) (listed as Arabidopsis thaliana)
- Binding of peptide to COI1 in the presence of coronatine (COI1): did not bind to COI1 with high affinity

Compound: O=P(O)(O)O[C@H]1[C@H](OP(=O)(O)O)[C@@H](OP(=O)(O)O)[C@@H](O)[C@@H](O)[C@@H]1OP(=O)(O)O [inositol-1,4,5,6-tetrakisphosphate]
- Effect of inositol phosphate on activity of the COI1/JAZ1 co-receptor (coronatine binding) (COI1/JAZ1 co-receptor [1]): supports the activity
